Data on five molecules can be found in paper PMC5314961 (Bioorganic & medicinal chemistry letters, 2017).

Entries after “also recorded” stand apart in the source; their conditions may differ.

Assay [1] relates to HBV. The note with it: literature report; cited from earlier work.
For assay [2], the system named is HBV. Description: Anti-HBV activity in HepAD38 cells, HBV DNA replication by real-time PCR. The assay is classed as cell-based, Hepatitis B virus. The following applies: for anti-HBV activity (result in words): HepAD38 system, concentrations up to 10 µM.

In the case of `CC1(C)CC(=O)C2=C(C1)NC(c1cccnc1)=NC2c1ccc(F)cc1Cl` (stereo not drawn) [Compound 1, reference compound], in assay [1], the “inhibitor of HBV replication (reported in the literature)” value is “submicromolar inhibitor”. Besides, the “anti-HBV activity (result in words)” value in assay [2] is “did not express any activity”. For `COC(=O)C1=C(CN=[N+]=[N-])NC(c2ccccn2)=NC1c1ccc(F)cc1Cl` (stereo not drawn) [Compound 21d], in assay [2] (Hepatitis B virus, HePAD38, read-out: Anti-HBV activity, EC50, HepAD38 cells, inhibition of HBV DNA replication by 50%, tested 0.001 to 10 µM, duplicate), the half-maximal effective concentration (EC50) turned out to be 7.5 µM. Consider `CC1=C(Cl)C(c2ccc(F)cc2Cl)N=C(c2ccccn2)N1` (stereo not drawn) [Compound 26c], for which the “anti-HBV activity (result in words)” value in assay [2] was “none of them showed activity; also recorded: inactive”.

As to `CC1=C(C(=O)OCC(F)(F)F)C(c2ccc(F)cc2Cl)N=C(c2ccccn2)N1` (stereo not drawn) [Compound 26e], the “anti-HBV activity (result in words)” value in assay [2] is listed as “none of them showed activity”.

For `CC1=C(C(=O)NS(=O)(=O)N(C)C)C(c2ccc(F)cc2Cl)N=C(c2ccccn2)N1` (stereo not drawn) [Compound 26f], the “anti-HBV activity (result in words)” value in assay [2] is “none of them showed activity”.

A word on the EC50: it is the concentration needed to bring the measured effect to its halfway point.
